In ChEMBL document CHEMBL6177948, “Discovery of potential Leonurine-based therapeutic lead MJ210 attenuates Parkinson's disease pathogenesis via NF-κB and MAPK pathways: Mechanistic insights from in vitro and in vivo rotenone models” (Eur J Med Chem, 2025):

Test system: SH-SY5Y
Assay: Neuroprotective activity against rotenone-induced cytotoxicity in human SH-SY5Y cells assessed as increase in cell viability at 1 to 20 uM incubated for 24 hrs by MTT assay relative to control
Assay type: functional
Details: dose 1-20 µM

Compound	Activity
COc1cc(CCC(=O)Nc2nc3ccccc3s2)cc(OC)c1OC(=O)C1CCCN1C(=O)OC(C)(C)C (stereo unspecified)	>80%
COc1cc(CCC(=O)NCc2ccc3c(c2)OCO3)cc(OC)c1OC(=O)c1ccccn1	>80%
COc1ccc(N2CCN(C(=O)CCc3cc(OC)c(OC(=O)c4ccccn4)c(OC)c3)CC2)cc1	>80%
COc1cc(CCC(=O)N2CCN(c3ccccc3)CC2)cc(OC)c1OC(=O)c1ccccn1	>80%
COc1cc(CCC(=O)N2CCCCC2)cc(OC)c1OC(=O)C1CCCN1C(=O)OC(C)(C)C (stereo unspecified)	>80%
COc1cc(/C=C/C(=O)N2CCCCC2)cc(OC)c1OC(=O)c1ccccn1	>80%
